Reference: patent publication US20140357713A1, “ANTIMICROBIAL COMPOUNDS AND METHODS OF USE” (NexMed Holdings, Inc., priority 2012, published 2014)
Structures can show the parent of a compound that is named as a salt. Where two headings read alike, the source gives them in different places.

How the values were obtained:
[1] = test system: Staphulococcus aureus (ATCC 29213); test: Minimum inhibitory concentration (MIC) assay, Example 33; format: cell-based, Staphylococcus aureus; settings: Staphylococcus aureus
Outline: (§1)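 Following CLSI guidelines, each bacterial strain was taken from a twice-restreaked agar colony and suspended to 0.5 McFarland density. After a 1:100 dilution it was mixed 1:2 with 2-fold serially diluted compound in CAMHB. The MIC was read after incubation at 35 °C.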

[2] = Solubility (Sol., Table 1); format: physicochemical
[3] = pH (Table 1); format: physicochemical
[4] = test system: Candida albicans (ATCC 90029); test: Time kill study, Example 33 (0 to 5 min); format: cell-based; settings: 1×MIC
Outline: (§2)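 Per CLSI guidelines, strain suspensions were mixed 1:1 by volume with compound solution; samples taken at 0 min, 30 sec, 1 min and 5 min were diluted and plated on agar. Colonies were counted after 24 to 48 hrs incubation and viable counts reported as Log10 CFU/mL.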

[5] = test system: Pseudomonas aeruginosa (ATCC 27853); test: Minimum inhibitory concentration (MIC) assay, Example 33; format: cell-based; settings: Pseudomonas aeruginosa
Outline: as §1

[6] = test system: Escherichia coli (ATCC 25922); test: as above; format: cell-based; settings: Escherichia coli
Outline: as §1

[7] = test system: Aspergillus niger (CMCC 98003); test: as above; format: cell-based; settings: for MIC: Aspergillus niger; for MIC Aspergillus niger: n = 2
Outline: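 Broth microdilution MIC per CLSI guidelines in RPMI 1640 with serial 2-fold compound dilutions. Spore suspension from sporulating colonies adjusted to OD530 0.09-0.13, diluted 1:50 as 2× inoculum and added 1:2 to drug wells; plates incubated at 35 °C and MIC read per CLSI.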

[8] = test system: Candida albicans (ATCC 90029); test: as above; format: cell-based; settings: Candida albicans
Outline: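 Broth microdilution per CLSI guidelines in RPMI 1640; inoculum set to OD530 0.08–0.13, diluted 1:50 then 1:20 to 2× strength and mixed 1:2 with 2-fold serial compound dilutions. Incubated at 35° C; MIC read per CLSI.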

[9] = test system: Aspergillus niger (CMCC 98003); test: Time kill study, Example 33 (0 to 5 min); format: cell-based; settings: 1×MIC
Experimental: Thirty compounds were tested for antimicrobial activity using standard procedures and standard strains for both the minimum inhibitory concentration (MIC) assay and a time kill study. Both the MIC assay and the time kill study were performed according to Clinical and Laboratory Standards Institute (CLSI) guidelines. Three bacteria strains, Escherichia coli (ATCC 25922), Pseudomonas aeruginosa (ATCC 27853), Staphulococcus aureus (ATCC 29213), and two fungus strains, Candida albicans (ATCC 90029) and Aspergillus niger (CMCC 98003), were used in the experiments.
The viable counts in Log10 CFU/mL at each time point were recorded.
Time kill studies. Strain suspensions were prepared as described above for the MIC test, and strain suspensions and compound solutions were mixed in the same volume. Samples were removed at specified times including 0 min, 30 sec, 1 min and 5 mins, were diluted in the test medium and streaked on agar. Colonies were counted after 24 to 48 hrs of incubation.
The MIC values for thirty compounds against Escherichia coli, Pseudomonas aeruginosa, Staphulococcus aureus, Candida albicans, and Aspergillus niger were recorded and are presented in Table 3 and Table 4.

[10] = test system: Pseudomonas aeruginosa (ATCC 27853); test: Time kill study, Example 33 (0 to 5 min); format: cell-based; settings: 1×MIC
Outline: as §2

[11] = test system: Escherichia coli (ATCC 25922); test: Time kill study, Example 33 (0 to 5 min); format: cell-based; settings: 1×MIC
Outline: as §2

[12] = test system: Staphylococcus aureus (ATCC 29213); test: Time kill study, Example 33 (0 to 5 min); format: cell-based; settings: 1×MIC
Outline: as §2

[13] = ATCC29213, read-out: MIC S. aureus, n = 1
[14] = ATCC29213, read-out: MIC S. aureus, n = 2
[15] = ATCC27853, read-out: MIC P. aeruginosa, n = 1
[16] = ATCC27853, read-out: MIC P. aeruginosa, n = 2
[17] = ATCC25922, Table 19 summary of Example 33 and Example 35
[18] = ATCC25922, read-out: MIC E. coli, n = 1
[19] = ATCC25922, read-out: MIC E. coli, n = 2
[20] = CMCC98003, read-out: MIC Aspergillus niger
[21] = ATCC90029, read-out: MIC Candida albicans, n = 1
[22] = ATCC90029, read-out: MIC Candida albicans, n = 2

SMILES | MIC ([1]; ATCC29213, Table 19 summary) | MIC [1, 13] | MIC [1, 14] | Sol. [2] | pH [3] | Viable counts, Candida albicans time kill study ([4]; 0.5 min) | Viable counts, Candida albicans time kill study ([4]; 1 min) | Viable counts, Candida albicans time kill study ([4]; 5 min) | MIC ([5]; ATCC27853, Table 19 summary) | MIC [5, 15] | MIC [5, 16] | MIC [6, 17] | MIC [6, 18] | MIC [6, 19] | MIC ([7]; CMCC98003) | MIC [7, 20] | MIC Aspergillus niger [7] | MIC ([8]; ATCC90029, Table 19 summary) | MIC [8, 21] | MIC [8, 22] | other results
CCCCCCCCCCCCOC(=O)C(Cc1ccccc1)N(C)C (centres unmarked) [Nex-54, Dodecyl 2-(dimethylamino)-3-phenylpropanoate hydrochloride] | ≥ 12500 µg/mL | > 12500 µg/mL | 12500 µg/mL | 58% | 2.16 | 5.56 Log10 CFU/mL | 5.52 Log10 CFU/mL | 5.48 Log10 CFU/mL | ≥ 12500 µg/mL | > 12500 µg/mL | 12500 µg/mL | ≥ 12500 µg/mL | > 12500 µg/mL | 12500 µg/mL | 12500 µg/mL | 12500 µg/mL | 12500 µg/mL | 6250 µg/mL | 6250 µg/mL | 6250 µg/mL | Viable counts, Candida albicans time kill study ([4]; time 0): 5.56 Log10 CFU/mL
CCCCCCCCCCCCOC(=O)CN(C)C [Nex-52, Dodecyl 2-(dimethylamino)acetate hydrochloride] | 200 µg/mL | 200 µg/mL | 100 µg/mL | 49% | 3.30 | 5.19 Log10 CFU/mL | 5.17 Log10 CFU/mL | 5.23 Log10 CFU/mL | 6250 µg/mL | 6250 µg/mL | 6250 µg/mL | 1560 µg/mL | 1560 µg/mL | 1560 µg/mL | 3130 µg/mL | 3130 µg/mL | 3130 µg/mL | 50 µg/mL | 50 µg/mL | 50 µg/mL | Viable counts, Aspergillus niger time kill study ([9]; 0.5 min): 5.28 Log10 CFU/mL; Viable counts, Aspergillus niger time kill study ([9]; 1 min): 5.28 Log10 CFU/mL; Viable counts, Aspergillus niger time kill study ([9]; 5 min): 4.95 Log10 CFU/mL; Viable counts, Aspergillus niger time kill study ([9]; time 0): 5.30 Log10 CFU/mL; Viable counts, Candida albicans time kill study ([4]; time 0): 5.24 Log10 CFU/mL; Viable counts, Pseudomonas aeruginosa time kill study ([10]; 0.5 min): 4.7 Log10 CFU/mL; Viable counts, Pseudomonas aeruginosa time kill study ([10]; 1 min): 4 Log10 CFU/mL; Viable counts, Pseudomonas aeruginosa time kill study ([10]; 5 min): <3.52 Log10 CFU/mL; Viable counts, Pseudomonas aeruginosa time kill study ([10]; time 0): 5.56 Log10 CFU/mL; Viable counts, Escherichia coli time kill study ([11]; 0.5 min): 6.12 Log10 CFU/mL; Viable counts, Escherichia coli time kill study ([11]; 1 min): 5.86 Log10 CFU/mL; Viable counts, Escherichia coli time kill study ([11]; 5 min): 5.24 Log10 CFU/mL; Viable counts, Escherichia coli time kill study ([11]; time 0): 5.95 Log10 CFU/mL; Viable counts, Staphylococcus aureus time kill study ([12]; 0.5 min): 6.27 Log10 CFU/mL; Viable counts, Staphylococcus aureus time kill study ([12]; 1 min): 6.12 Log10 CFU/mL; Viable counts, Staphylococcus aureus time kill study ([12]; 5 min): 6.13 Log10 CFU/mL; Viable counts, Staphylococcus aureus time kill study ([12]; time 0): 6.26 Log10 CFU/mL
CCCCCCCCCCCOC(=O)C(C)N(C)C (centres unmarked) [Nex-67, Undecyl 2-(dimethylamino)propanoate hydrochloride] |  | 3130 µg/mL | 1560 µg/mL | 81% | 3.77 | 5.53 Log10 CFU/mL | 5.49 Log10 CFU/mL | 5.41 Log10 CFU/mL | 6250 µg/mL | 6250 µg/mL | 6250 µg/mL | 1560 µg/mL | 1560 µg/mL | 1560 µg/mL | 12500 µg/mL | 12500 µg/mL | 12500 µg/mL | 6250 µg/mL | 6250 µg/mL | 6250 µg/mL | Viable counts, Candida albicans time kill study ([4]; time 0): 5.58 Log10 CFU/mL; Viable counts, Pseudomonas aeruginosa time kill study ([10]; 0.5 min): <4.0 Log10 CFU/mL; Viable counts, Pseudomonas aeruginosa time kill study ([10]; 1 min): <3.70 Log10 CFU/mL; Viable counts, Pseudomonas aeruginosa time kill study ([10]; 5 min): <3.52 Log10 CFU/mL; Viable counts, Pseudomonas aeruginosa time kill study ([10]; time 0): 5.71 Log10 CFU/mL; Viable counts, Escherichia coli time kill study ([11]; 0.5 min): 5.81 Log10 CFU/mL; Viable counts, Escherichia coli time kill study ([11]; 1 min): 5.28 Log10 CFU/mL; Viable counts, Escherichia coli time kill study ([11]; 5 min): 3.82 Log10 CFU/mL; Viable counts, Escherichia coli time kill study ([11]; time 0): 5.64 Log10 CFU/mL; Viable counts, Staphylococcus aureus time kill study ([12]; 0.5 min): 6.1 Log10 CFU/mL; Viable counts, Staphylococcus aureus time kill study ([12]; 1 min): 6.13 Log10 CFU/mL; Viable counts, Staphylococcus aureus time kill study ([12]; 5 min): 5.88 Log10 CFU/mL; Viable counts, Staphylococcus aureus time kill study ([12]; time 0): 6.27 Log10 CFU/mL
CCCCCCCCOC(=O)C(C)N(C)C (centres unmarked) [Nex-70, Octyl 2-(dimethylamino)propanoate hydrochloride] | 3130 µg/mL | 3130 µg/mL | 3130 µg/mL | 134% | 0.88 | 5.53 Log10 CFU/mL | 5.51 Log10 CFU/mL | 5.49 Log10 CFU/mL | 3130 µg/mL | 3130 µg/mL | 3130 µg/mL | 780 µg/mL | 780 µg/mL | 780 µg/mL | 12500 µg/mL | 12500 µg/mL | 12500 µg/mL | 780 µg/mL | 780 µg/mL | 780 µg/mL | Viable counts, Candida albicans time kill study ([4]; time 0): 5.55 Log10 CFU/mL; Viable counts, Pseudomonas aeruginosa time kill study ([10]; 0.5 min): <4.0 Log10 CFU/mL; Viable counts, Pseudomonas aeruginosa time kill study ([10]; 1 min): <3.70 Log10 CFU/mL; Viable counts, Pseudomonas aeruginosa time kill study ([10]; 5 min): <3.52 Log10 CFU/mL; Viable counts, Pseudomonas aeruginosa time kill study ([10]; time 0): 5.62 Log10 CFU/mL; Viable counts, Escherichia coli time kill study ([11]; 0.5 min): <4.0 Log10 CFU/mL; Viable counts, Escherichia coli time kill study ([11]; 1 min): <3.70 Log10 CFU/mL; Viable counts, Escherichia coli time kill study ([11]; 5 min): <3.52 Log10 CFU/mL; Viable counts, Escherichia coli time kill study ([11]; time 0): 5.0 Log10 CFU/mL; Viable counts, Staphylococcus aureus time kill study ([12]; 0.5 min): 6.42 Log10 CFU/mL; Viable counts, Staphylococcus aureus time kill study ([12]; 1 min): 6.37 Log10 CFU/mL; Viable counts, Staphylococcus aureus time kill study ([12]; 5 min): 6.22 Log10 CFU/mL; Viable counts, Staphylococcus aureus time kill study ([12]; time 0): 6.37 Log10 CFU/mL
CCCCCCCCCCCCCOC(=O)C(C)N(C)C (centres unmarked) [Nex-69, Tridecyl 2-(dimethylamino)propanoate hydrochloride] | 3130 µg/mL | 3130 µg/mL | 3130 µg/mL | 51% | 1.64 |  |  |  | 6250 µg/mL | 6250 µg/mL | 6250 µg/mL | 3130 µg/mL | 3130 µg/mL | 3130 µg/mL | > 12500 µg/mL | > 12500 µg/mL | >12500 µg/mL | 12500 µg/mL | 12500 µg/mL | 12500 µg/mL | Viable counts, Pseudomonas aeruginosa time kill study ([10]; 0.5 min): 5.75 Log10 CFU/mL; Viable counts, Pseudomonas aeruginosa time kill study ([10]; 1 min): 5.74 Log10 CFU/mL; Viable counts, Pseudomonas aeruginosa time kill study ([10]; 5 min): 5.21 Log10 CFU/mL; Viable counts, Pseudomonas aeruginosa time kill study ([10]; time 0): 5.65 Log10 CFU/mL; Viable counts, Escherichia coli time kill study ([11]; 0.5 min): 5.72 Log10 CFU/mL; Viable counts, Escherichia coli time kill study ([11]; 1 min): 5.54 Log10 CFU/mL; Viable counts, Escherichia coli time kill study ([11]; 5 min): <3.52 Log10 CFU/mL; Viable counts, Escherichia coli time kill study ([11]; time 0): 6.25 Log10 CFU/mL; Viable counts, Staphylococcus aureus time kill study ([12]; 0.5 min): 6.39 Log10 CFU/mL; Viable counts, Staphylococcus aureus time kill study ([12]; 1 min): 6.31 Log10 CFU/mL; Viable counts, Staphylococcus aureus time kill study ([12]; 5 min): 6.38 Log10 CFU/mL; Viable counts, Staphylococcus aureus time kill study ([12]; time 0): 6.41 Log10 CFU/mL
